Assay results reported in patent US8501816B2, “Antitussive compositions comprising memantine” (Cerecor, Inc., priority 2010, dated 2013).
“Also recorded” adds a separate entry of the source. Marks after values point to notes of the source that are not given here.

How the values were obtained:
bradykinin induced cough = assay: Bradykinin induced cough in conscious guinea pigs; assay type: in vivo, guinea pig
Procedure: Using a similar chamber and nebulizer system, animals were treated first with aerosolized peptidase inhibitors (captopril 0.1 μM and thiorphan 0.1 μM, 5 minutes nebulization) to reduce bradykinin degradation and enhance tussive responses evoked by bradykinin (unpublished observations). Animals were then exposed to increasing concentrations of aerosolized bradykinin (0.1-3 mg/mL), again for 5 minute periods. Coughs are counted during this and the subsequent 5 minutes. Pressure changes within the chamber are used to monitor respiratory rate (Biopac Systems Inc, Goleta, Calif.).

[1] = Pharmacokinetics of memantine after oral or buccal dosing in male beagle dogs (Example 2); assay type: in vivo, beagle dog; parameters: Cmax/Dose: unit not given beside the values
Procedure: The pharmacokinetics of memantine were evaluated after buccal administration in male beagle dogs. Memantine was formulated in water, 3.3 mg/mL sodium hydroxide in water, or 7.5 mg/mL sodium carbonate in water. All dogs received a 0.4 mg/kg dose of memantine. Plasma levels of memantine were determined by LC-MS/MS. Pharmacokinetic parameters were determined for the memantine plasma data.
For dosing, dogs were anesthetized with an IV injection of ketamine/diazepam, and maintained by isoflurane intubation during the buccal administration. The dosing solution was pipetted into a circular cylinder to concentrate the dosing solution on one area of the mucosa. At just prior to the 15 minute sample time point, the oral cavity was rinsed with 5 mL of water and dried with gauze Immediately after the rinse, the 15 minute sample was collected.

Caco-2 cells = assay: Memantine in vitro intestinal permeability (Caco-2 cells); assay type: in vitro ADME; settings: pH 5.0 to 10.5
[2] = Pharmacokinetics of memantine after oral or buccal dosing in male beagle dogs (Example 2); assay type: in vivo, beagle dog; parameters: Cmax/Dose: unit not given beside the values; settings: for AUC(0-inf) / AUC(0-t) / Cmax / Tmax / half-life: male, beagle, dog, plasma, 0.4 mg/kg
[3] = cited from earlier work
[4] = around pH 6.0; cited from earlier work
[5] = system: histamine neuron activity; settings: cited from earlier work
NMDA receptors = settings: cited from earlier work
sigma receptor = settings: cited from earlier work
[6] = cited from earlier work; remark: listed apart in the source
[7] = system: citric acid induced cough; assay: Citric acid induced cough in conscious guinea pigs; settings: for ≧15 Cumulative coughs/total number of guinea pigs: 1 hour pre-citric acid challenge; for Cumulative coughs evoked by citric acid, 0.1M Citric Acid / Cumulative coughs evoked by citric acid, 0.3M Citric Acid: MMT 10 mg/kg intraperitoneal
Procedure: Male Hartley guinea pigs (200-700 g) were studied and all experiments were first approved by the institutional Animal Care and Use Committee.
Animals were placed in a transparent chamber (Buxco Research Systems, Wilmington, N.C.) with a continuous flow of air and exposed to increasing concentrations of citric acid (0.01 M-0.3 M) is delivered by an ultrasonic nebulizer generating aerosol particles of 3-6 μm diameter. Coughs were counted during a 5 minute nebulization period and over the subsequent 5 minutes with the assistance of sound and pressure monitoring from the chamber. Respiratory rate and tidal volume were monitored throughout via a calibrated pressure transducer (Emka Technologies, Falls Church, Va.).
Each of these drugs was administered orally in half-log increments (e.g. 3 mg/kg, 10 mg/kg, 30 mg/kg) in an unpaired experimental design (each animal received only 1 dose of drug). The drugs were administered 60 minutes prior to citric acid challenge, which consisted of 5 minute challenges with aerosols of increasing concentrations of citric acid (0.01-0.3M), with 5 minute intervals in between escalating doses of the tussive stimulus.

[8] = Sedation and side effects observed in the cough studies
[9] = MMT 0.4 mg/kg Buccal + 3.3 mg/ml NaOH
[10] = MMT 0.4 mg/kg Buccal, Control (water)
[11] = male, beagle, dog, plasma, 0.4 mg/kg, MMT 0.4 mg/kg Buccal + 7.5 mg/ml Na2CO3
[12] = male, beagle, dog, plasma, 0.4 mg/kg, MMT 0.4 mg/kg Buccal, Control (water)
[13] = MMT 0.4 mg/kg Buccal + 7.5 mg/ml Na2CO3
[14] = po, MMT 0.4 mg/kg Oral + 15 mg/kg NH4Cl
[15] = po, MMT 0.4 mg/kg Oral + 25 mg/kg NH4Cl
[16] = po, MMT 0.4 mg/kg Oral + 30 mg/kg NH4Cl
[17] = po, MMT 0.4 mg/kg Oral, ControlAve

CC12CC3CC(C)(C1)CC(N)(C3)C2 [Memantine, 3,5-dimethyltricyclo[3.3.1.1^3,7]decan-1-amine]
Effect on number of coughs evoked by bradykinin aerosols compared to control (bradykinin induced cough; FIG. 4, p<0.01): significantly reduced the number of coughs evoked by bradykinin
Cumulative coughs, 0.3M bradykinin challenge (bradykinin induced cough; MMT 3 mg/kg i.p. 1 hour pre-bradykinin challenge): 20 ± 5
Cumulative coughs, 0.3M bradykinin challenge (bradykinin induced cough; MMT 10 mg/kg i.p. 1 hour pre-bradykinin challenge): 1.3±0.8
Cumulative coughs, 0.3M bradykinin challenge (bradykinin induced cough; MMT 10 mg/kg i.p. 1 hour pre-bradykinin challenge, listed as MMT): 1.3 ± 0.8
cumulative number of coughs evoked by 0.1-3 mg/mL bradykinin, median (bradykinin induced cough; memantine 10 mg/kg, controls 16 coughs): 0.0 coughs
Cmax/Dose [1, 9]: 12.9
Cmax/Dose [1, 10]: 6.7
AUC(0-inf) [1, 11]: 184 ng·h/mL
Cmax [1, 11]: 54 ng/mL
AUC(0-inf) [1, 12]: 125 ng·h/mL
AUC(0-t) [1, 12]: 119 ng·h/mL
permeability in Caco-2 cells versus pH (Caco-2 cells): gradually increases with an increase in pH
Cmax/Dose ([2]; MMT 0.4 mg/kg Oral + 15 mg/kg NH4Cl): 6.8
Cmax/Dose ([2]; MMT 0.4 mg/kg Oral + 25 mg/kg NH4Cl): 5.2
Cmax/Dose ([2]; MMT 0.4 mg/kg Oral + 30 mg/kg NH4Cl): 5.4
Cmax/Dose ([2]; MMT 0.4 mg/kg Oral, ControlAve): 5.2
AUC(0-inf) [2, 9]: 112 ng·h/mL
AUC(0-t) [2, 9]: 108 ng·h/mL
Cmax [2, 9]: 52 ng/mL
Tmax [2, 9]: 0.25 h
half-life [2, 9]: 5.2 h
AUC(0-t) [2, 13]: 179 ng·h/mL
Tmax [2, 13]: 0.45 h
half-life [2, 13]: 4.5 h
Cmax [2, 10]: 23 ng/mL
Tmax [2, 10]: 0.75 h
half-life [2, 10]: 5.2 h
AUC(0-inf) [2, 14]: 256 ng·h/mL
AUC(0-t) [2, 14]: 233 ng·h/mL
Cmax [2, 14]: 25 ng/mL
Tmax [2, 14]: 2 h
half-life [2, 14]: 6.7 h
AUC(0-inf) [2, 15]: 179 ng·h/mL
AUC(0-t) [2, 15]: 169 ng·h/mL
Cmax [2, 15]: 20 ng/mL
Tmax [2, 15]: 1.5 h
half-life [2, 15]: 5.5 h
AUC(0-inf) [2, 16]: 168 ng·h/mL
AUC(0-t) [2, 16]: 163 ng·h/mL
Cmax [2, 16]: 25 ng/mL
Tmax [2, 16]: 1.1 h
half-life [2, 16]: 4.8 h
AUC(0-inf) [2, 17]: 210 ng·h/mL
AUC(0-t) [2, 17]: 190 ng·h/mL
Cmax [2, 17]: 22 ng/mL
Tmax [2, 17]: 1.7 h
half-life [2, 17]: 6.5 h
solubility ([3]; all physiological pHs): > 30 mg/mL
Biopharmaceutics Classification System (BCS) class ([3]; highly soluble/highly permeable): class I
ionization [4]: completely ionized
ED50 of t-MeHA increase ([5]; acute administration): 0.3 ± 0.1 mg/kg
increase of tele-methylhistamine (t-MeHA) levels in the brain ([5]; acute administration): 60%
t-MeHA levels enhanced by ([5]; two days after 5 mg/kg twice daily for 5 days): 50±7%
ED50 of inhibition of ex vivo [3H]MK-801 binding (NMDA receptors): 1.8 ± 1.3 mg/kg
interaction with receptor (sigma receptor): does not interact
plasma memantine concentrations at steady state ([6]; conventional memantine dosage forms): 70 to 150 ng/mL
Total renal clearance ([6]; healthy volunteers): approximately 170 mL/min/1.70 m^2
bound to plasma proteins ([6]; in vivo): about 45%
mean volume of distribution ([6]; in vivo): about 10 L/kg
bioavailability ([6]; oral, conventional memantine): > 100%
≧15 Cumulative coughs/total number of guinea pigs ([7]; 0.01 mg/kg po): 2/5
≧15 Cumulative coughs/total number of guinea pigs ([7]; 0.1 mg/kg po): 1/5
Cumulative numbers of cough, median, citric acid 0.01M ([7]; 1 mg/kg intraperitoneally): 0.0
Cumulative numbers of cough, median, citric acid 0.1M ([7]; 1 mg/kg intraperitoneally): 5.0
Cumulative numbers of cough, median, citric acid 0.3M ([7]; 1 mg/kg intraperitoneally): 14.0
≧15 Cumulative coughs/total number of guinea pigs ([7]; 1 mg/kg po): 2/7
Cumulative numbers of cough, median, citric acid 0.01M ([7]; 3 mg/kg intraperitoneally): 0.0
Cumulative numbers of cough, median, citric acid 0.1M ([7]; 3 mg/kg intraperitoneally): 3.0
Cumulative numbers of cough, median, citric acid 0.3M ([7]; 3 mg/kg intraperitoneally): 24.5
≧15 Cumulative coughs/total number of guinea pigs ([7]; 3 mg/kg po): 0/5
Cumulative numbers of cough, median, citric acid 0.01M ([7]; 10 mg/kg intraperitoneally): 0.0
Cumulative numbers of cough, median, citric acid 0.1M ([7]; 10 mg/kg intraperitoneally): 0.0
Cumulative numbers of cough, median, citric acid 0.3M ([7]; 10 mg/kg intraperitoneally): 1.5*
Effect on cumulative number of coughs evoked by citric acid (0.01-0.3M) compared to controls ([7]; 10 mg/kg intraperitoneally): significantly reduced the cumulative number of coughs; also recorded: markedly reduced the number of cumulative coughs
≧15 Cumulative coughs/total number of guinea pigs ([7]; 10 mg/kg po): 0/7
Cumulative numbers of cough, median, citric acid 0.01M ([7]; 30 mg/kg intraperitoneally): 0.0
Cumulative numbers of cough, median, citric acid 0.1M ([7]; 30 mg/kg intraperitoneally): 0.0*
Cumulative numbers of cough, median, citric acid 0.3M ([7]; 30 mg/kg intraperitoneally): 1.5*
Effect on cumulative number of coughs evoked by citric acid (0.01-0.3M) compared to controls ([7]; 30 mg/kg intraperitoneally): significantly reduced the cumulative number of coughs; also recorded: similarly reduced cough responses
≧15 Cumulative coughs/total number of guinea pigs ([7]; 30 mg/kg po): 0/4
Effect on cumulative coughs evoked by citric acid over vehicle ([7]; 1 and 3 mg/kg): no significant effect
Cumulative coughs evoked by citric acid, 0.1M Citric Acid ([7]; 0.5 hr pre-challenge): 2 ± 2
Cumulative coughs evoked by citric acid, 0.3M Citric Acid ([7]; 0.5 hr pre-challenge): 5 ± 3
Cumulative coughs evoked by citric acid, 0.1M Citric Acid ([7]; 1 hr pre-challenge): 1 ± 1
Cumulative coughs evoked by citric acid, 0.3M Citric Acid ([7]; 1 hr pre-challenge): 7 ± 3
Cumulative coughs evoked by citric acid, 0.1M Citric Acid ([7]; 2 hr pre-challenge): 0 ± 0
Cumulative coughs evoked by citric acid, 0.3M Citric Acid ([7]; 2 hr pre-challenge): 7 ± 4
Cumulative coughs evoked by citric acid, 0.1M Citric Acid ([7]; 4 hr pre-challenge): 6 ± 5
Cumulative coughs evoked by citric acid, 0.3M Citric Acid ([7]; 4 hr pre-challenge): 15 ± 6
Levels of cough, oral compared to parenteral administration ([7]; doses of 1 mg/kg or more (FIG. 8)): substantially reduced levels of cough compared to parenterally administered memantine
time to the first cough during the citric acid challenge ([7]; memantine 10 mg/kg vs vehicle, p=0.007): shorter for vehicle than memantine 10 mg/kg
Effect of single agent on citric acid (0.01-0.3M) induced cough ([7]; oral, 60 minutes prior, memantine 3, guaifenesin 100, diphenhydramine 10, benzonatate 30, ambroxol 100 mg/kg): failed to inhibit cough
Percentage of animals coughing ≧15 times, effect relative to controls ([7]; orally, doses around 0.1-1 mg/kg (FIG. 7)): reduces cough relative to controls
Side effects / sedation ([8]; memantine 10 mg/kg intraperitoneally): No side effects; also recorded: induced no sedation; also recorded: no sedating effects
Side effects ([8]; memantine 30 mg/kg): slight behavioral changes
